In brackets after ≈: the same amount, converted by molar mass. Where two headings read alike, the source gives them in different places.
How the values were obtained:
Test in all cases: microbe, parasite or virus in culture
C. tropicalis [1] = tested on: C. tropicalis; set-up: species or system Candida strains; broth microdilution antifungal susceptibility according to EUCAST protocols, growth inhibition MIC; conditions: Candida tropicalis, EUCAST, read-out: MIC Fluconazole
Protocol: (§1) The results of [compound left out] susceptibility assays with several clinically relevant Candida species are shown on Fig. 2B. All strains, except C. glabrata, were highly susceptible to [compound left out]. […] [compound left out] […] The yeast and bacterial strains used in the study are listed in Table S1 in the supplemental material. NPs were dissolved in DMSO to 10 μg/ml. [compound left out] [compound left out] was purchased from Phytolab (GmbH), dissolved in DMSO at a 2 mM concentration, heated for 20 min at 50°C for solubilization, and stored at −20°C until usage.

C. albicans [2] = tested on: C. albicans; set-up: species or system Candida strains; broth microdilution antifungal susceptibility according to EUCAST protocols, growth inhibition MIC; conditions: Candida albicans, EUCAST, read-out: MIC Fluconazole
Protocol: as §1

[3] = tested on: Pichia kudriavzevii C. krusei; set-up: species or system Candida strains; broth microdilution antifungal susceptibility according to EUCAST protocols, growth inhibition MIC; conditions: DSY2293, EUCAST, read-out: MIC Fluconazole
Protocol: as §1

C. tropicalis [4] = tested on: C. tropicalis; set-up: species or system Candida strains; broth microdilution antifungal susceptibility in YNB buffered at pH 7.0, growth inhibition MIC; conditions: Candida tropicalis, YNB pH 7.0
Protocol: as §1

C. albicans [5] = tested on: C. albicans; set-up: species or system Candida strains; broth microdilution antifungal susceptibility in YNB buffered at pH 7.0, growth inhibition MIC; conditions: Candida albicans, YNB pH 7.0
Protocol: as §1

[6] = tested on: Pichia kudriavzevii C. krusei; set-up: species or system Candida strains; broth microdilution antifungal susceptibility in YNB buffered at pH 7.0, growth inhibition MIC
Protocol: as §1

## OC(Cn1cncn1)(Cn1cncn1)c1ccc(F)cc1F [Fluconazole]
C. tropicalis [1]; DSY381
  MIC: 0.5 µg/mL (≈ 1.63 µM)
C. tropicalis [1]; DSY2274
  MIC: 2 µg/mL (≈ 6.53 µM)
C. tropicalis [1]; DSY2336
  MIC: 16 µg/mL (≈ 52.2 µM)
C. tropicalis [1]; DSY2374
  MIC: 8 µg/mL (≈ 26.1 µM)
C. tropicalis [1]; DSY2825
  MIC: 128 µg/mL (≈ 418 µM)
C. tropicalis [1]; DSY2897
  MIC: 4 µg/mL (≈ 13.1 µM)
C. albicans [2]; DSY227
  MIC: 0.5 µg/mL (≈ 1.63 µM)
C. albicans [2]; DSY288
  MIC: 1 µg/mL (≈ 3.27 µM)
C. albicans [2]; DSY297
  MIC: 2 µg/mL (≈ 6.53 µM)
C. albicans [2]; DSY299
  MIC: 0.25 µg/mL (≈ 0.816 µM)
[3]
  MIC: 32 µg/mL (≈ 104 µM)

## C[C@H]1CC[C@]2(NC1)O[C@H]1C[C@H]3[C@@H]4CC[C@H]5C[C@@H](O)CC[C@]5(C)[C@H]4CC[C@]3(C)[C@H]1[C@@H]2C [compound 22, Tomatidine]
C. tropicalis [4]; DSY381
  MIC: 0.312 µM (≈ 0.13 µg/mL)
C. tropicalis [4]; DSY826
  MIC: 0.15 µM (≈ 0.0623 µg/mL)
C. tropicalis [4]; DSY2274
  MIC: 2.5 µM (≈ 1.04 µg/mL)
C. tropicalis [4]; DSY2310
  MIC: 1.25 µM (≈ 0.52 µg/mL)
C. tropicalis [4]; DSY2825
  MIC: 5 µM (≈ 2.08 µg/mL)
C. albicans [5]; DSY227
  MIC: 0.625 µM (≈ 0.26 µg/mL)
C. albicans [5]; DSY281
  MIC: 0.312 µM (≈ 0.13 µg/mL)
C. albicans [5]; DSY290
  MIC: 2.5 µM (≈ 1.04 µg/mL)
[6]; DSY2293, YNB pH 7.0
  MIC: 0.625 µM (≈ 0.26 µg/mL)
[6]; DSY2294, YNB pH 7.0
  MIC: > 40 µM
[6]; DSY2302, YNB pH 7.0
  MIC: 1.25 µM (≈ 0.52 µg/mL)

Source: paper PMC5571344, “Identification and Mode of Action of a Plant Natural Product Targeting Human Fungal Pathogens” (Antimicrobial Agents and Chemotherapy, 2017)
